Here are results for five molecules from article PMC7605239 (Cell, 2020).

The target in assay [1] is T1, CR518 (chemotactile receptor 518) (Octopus bimaculoides, UniProt A0A0L8FVQ9).
T1 sequence (A0A0L8FVQ9 21-399): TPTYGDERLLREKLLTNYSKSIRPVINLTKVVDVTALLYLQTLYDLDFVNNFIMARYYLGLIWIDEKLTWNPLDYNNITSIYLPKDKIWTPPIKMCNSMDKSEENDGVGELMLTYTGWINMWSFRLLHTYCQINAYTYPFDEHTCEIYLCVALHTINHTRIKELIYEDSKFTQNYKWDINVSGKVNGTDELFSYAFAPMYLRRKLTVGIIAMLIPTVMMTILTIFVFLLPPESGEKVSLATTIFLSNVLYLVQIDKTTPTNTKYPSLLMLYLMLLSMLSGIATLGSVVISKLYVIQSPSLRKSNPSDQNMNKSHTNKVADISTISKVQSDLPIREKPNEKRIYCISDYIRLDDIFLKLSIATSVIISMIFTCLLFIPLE
The assay can be described thus: whole-cell patch clamp dose-response. The assay is classed as cell-based. In general terms: Patch clamp records ionic current or voltage across a cell membrane.

Assay [2] concerns CR840 (chemotactile receptor 840). Description: whole-cell patch clamp dose-response. The assay is classed as cell-based, Octopus bimaculoides.
The target of assay [3] is T1, CR518 (chemotactile receptor 518). The assay can be described thus: whole-cell patch clamp screen. The assay is classed as cell-based.
For assay [4] the target is unchanged. The assay can be described thus: whole-cell patch clamp dose-response. The assay is classed as cell-based. The source holds these as a separate data set.

Read-outs that look alike come from different tables or passages of the source.

The term EC50 denotes the concentration needed to bring the measured effect to its halfway point. In assay [1], `C=C1CCC[C@]2(C)Cc3occ(C)c3C[C@@H]12` [atractylon] gave an EC50 of 29.4 µM. On to `CCN(CC)CCCC(C)Nc1ccnc2cc(Cl)ccc12` (stereo not drawn) [chloroquine], for which the EC50 in assay [2] is 10.3 µM; in assay [1] it was 92.3 µM. With `CC1(C)CCC[C@]2(C)[C@@H](C=O)C(C=O)=CC[C@@H]12` [polygodial], the “whole-cell patch clamp screen (1 mM)” value in assay [3] is “CR518 was potently activated by terpenoids, including the physiologically-relevant sesquiterpene polygodial and furanosesquiterpene atractylon”. Turning to `C=C(C)[C@@H]1CCC2=CC(=O)C[C@@H](C)[C@]2(C)C1` [nootkatone], the EC50 in assay [4] came out at 24.7 µM. In other words, the double-digit micromolar range. Still for that read-out and setting: with `Cc1ccc(C(C)C)cc1O` [carvacrol] the figure was 204 µM.
